Laboratory results as given in patent publication US7098307B2, “Neo-tryptophan” (Mayo Foundation for Medical Education and Research, priority 1998, dated 2006).
Square brackets hold non-standard residues; d marks the D form. Peptide text beside a SMILES is read from it. Ala(indol-4-yl) = N[C@@H](Cc1cccc2[nH]ccc12)C(=O)O; NMeR = CN[C@@H](CCCNC(=N)N)C(=O)O; Tle = CC(C)(C)[C@H](N)C(=O)O

Assays:
human NTR1 [1] = biological target: T1, human NTR1 (Homo sapiens, UniProt P30989); experiment: Competition binding with [3H]NT, membranes of CHO-K1 cells transfected with human NTR1
T1 construct: expressed in transfected cells; host or cells: CHO-K1
T1 sequence (P30989 whole entry): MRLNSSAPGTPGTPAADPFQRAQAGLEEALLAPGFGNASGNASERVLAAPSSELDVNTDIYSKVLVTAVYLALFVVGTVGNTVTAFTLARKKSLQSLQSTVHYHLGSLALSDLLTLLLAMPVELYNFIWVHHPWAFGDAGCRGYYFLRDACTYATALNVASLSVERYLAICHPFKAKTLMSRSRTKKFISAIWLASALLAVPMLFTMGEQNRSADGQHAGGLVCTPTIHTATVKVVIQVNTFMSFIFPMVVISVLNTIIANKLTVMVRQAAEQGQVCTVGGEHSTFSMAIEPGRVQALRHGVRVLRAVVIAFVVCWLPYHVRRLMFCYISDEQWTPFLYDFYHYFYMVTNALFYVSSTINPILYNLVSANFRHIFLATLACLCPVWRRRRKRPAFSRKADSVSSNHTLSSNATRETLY
Protocol: (§1) CHO-K1 cells were stably transfected with nucleic acid encoding either the human NTR1 or the rat NTR1, and cultured in 150 mm petri plates with 35 mL of Dulbecco-modified Eagle's medium containing 100 μM minimal essential medium nonessential amino acids (GIBCO) supplemented with 5% (v/v) FetalClone II bovine serum product (Hyclone Labs, Logan, Utah). CHO cells (subculture 9–19) were harvested at confluency. Briefly, the medium from each plate was removed by aspiration, and the cells washed with 6 mL of 50 mM Tris-HCl (pH 7.4) and resuspended in 5–10 mL of Tris-HCl by scraping the cells with a rubber spatula. The resuspended cells were placed into a centrifuge tube and collected by centrifugation at 300× g for five minutes at 4° C. in a GPR centrifuge (Beckman Instruments, Fullerton, Calif.). The cellular pellet (in 50 mM Tris-HCl, 1 mM EDTA, pH 7.4) was stored at […] until radioligand binding was performed.
(§2) The supernatant was decanted and discarded, and the cellular pellet was resuspended in 2 mL of Tris-HCl, 1 mM EDTA (pH 7.4) followed by homogenization with a Brinkmann Polytron at setting 6 for ten seconds. Centrifugation was repeated as above and the supernatant was decanted and discarded. The resulting final cellular pellet was resuspended in 50 mM Tris-HCl, lmM EDTA, 0.1% bovine serum albumin, and 0.2 mM bacitracin.
(§3) Incubation was at 20° C. for 30 minutes. Each reaction was terminated by addition of cold 0.9% NaCl (5×1.5 mL) followed by rapid filtration through a GF/B filter strip that had been pretreated with 0.2% polyethylenimine.

[2] = Degradation in human plasma (HPLC peak area); format: in vitro ADME; settings: human; 25% plasma, 37° C., 0.5 mg/mL polypeptide; read-out: half-time, Plasma Human (converted)
Text: (§4) For the degradation studies, data were plotted in linear form as a semi-log plot with SigmaPlot for Windows Version 4.00. Linear regression on these plots provided the parameters used to calculate the half-time (t1/2) for degradation of each polypeptide. The correlation coefficient (R) for the linear regression was taken as a measure of the goodness-of-fit.

[3] = Degradation in rat intestinal preparation; format: in vitro ADME; settings: pH 7.4, 37° C., read-out: half-time, Rat Intestinal Preparation (converted)
Protocol: For intestinal preparations, rats were sacrificed by decapitation, and the small intestines removed. The tissue was washed with ice-cold PBS (10 mM, pH 7.4). About […] of intestinal tissue was added to about 10 mL of PBS and homogenized using a Brinkman polytron homogenizer (setting 6). After homogenization, 10 mL of PBS was added to 10 mL of the intestinal homogenate. […] The supernatant was removed and stored at −20° C. until testing. Immediately before incubation with the polypeptide, the intestinal preparation was filtered through a 0.2 μm filter. Testing procedures were similar to those for the plasma tests.
as §4

[4] = Blood glucose and hormone levels in rats; format: in vivo, rat; settings: 1 mg/kg ip
[5] = Body weight and food intake in rats; format: in vivo, rat; settings: for increase from original body weight at day 15: saline 29%
Protocol: Two groups of male Sprague-Dawley rats (small and large) and one group of genetically obese Zucker rats were used to study the influence of NT69L on various aspects of body weight. The group of small Sprague-Dawley rats weighed about 270 g at the beginning of the study, while the group of large Sprague-Dawley rats weighted about 400 g. […] The rats had free access to commercial hard rat chow pellets and tap water. During the study, the rats received 100 μL of either saline only or 1 μg/kg, 10 μg/kg, or 1 mg/kg of NT69L on days 1, 2, 7, 8, 11, and 12. Food intake (g), water consumption (mL), and body weight (g) were recorded daily for 15 days. The results were presented as mean ± SEM, or as % of original weight. The data were compared by variance analysis (unpaired or paired Student's t test) and Rank sum test.

rat NTR1 [6] = biological target: T2, rat NTR1 (Rattus norvegicus, UniProt P20789); experiment: PI turnover ([3H]IP1) in intact CHO-K1 cells, rat NTR1; format: cell-based
T2 construct: expressed in transfected cells; host or cells: CHO-K1
T2 sequence (P20789 whole entry): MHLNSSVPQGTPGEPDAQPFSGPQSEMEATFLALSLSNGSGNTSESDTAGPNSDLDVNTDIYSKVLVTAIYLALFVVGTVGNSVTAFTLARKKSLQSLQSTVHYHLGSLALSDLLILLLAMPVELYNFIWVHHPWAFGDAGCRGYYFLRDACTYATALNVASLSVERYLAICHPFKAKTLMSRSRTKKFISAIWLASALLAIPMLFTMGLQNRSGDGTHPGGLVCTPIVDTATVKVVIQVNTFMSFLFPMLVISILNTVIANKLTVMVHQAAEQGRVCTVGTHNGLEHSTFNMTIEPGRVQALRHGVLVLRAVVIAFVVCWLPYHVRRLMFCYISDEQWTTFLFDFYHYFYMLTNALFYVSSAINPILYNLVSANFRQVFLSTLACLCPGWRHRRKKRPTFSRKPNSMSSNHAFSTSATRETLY
Protocol: (§5) To measure PI turnover, intact CHO-K1 cells were harvested at about 80% confluency. Cells were detached from the petri plates by removal of culture medium followed by incubation of the cellular monolayer for 20 minutes at 37° C. with gentle shaking in a modified Puck's D1 solution containing 2 mM EGTA. […] Briefly, intact CHO cells were prelabeled with D-myo-[^3H]inositol (18.3 Ci/mmol) in the presence of lithium chloride (final concentration, 10 mM). […] For the experiments described herein, the stimulation time was 30 minutes, and the number of CHO cells per assay tube was 1.5×10^5.

5HT2A receptor = 5HT2A receptor (Homo sapiens, UniProt P28223); experiment: Competitive binding with [3H]ketanserin, human brain tissue
5HT2A receptor, sequence (P28223 whole entry): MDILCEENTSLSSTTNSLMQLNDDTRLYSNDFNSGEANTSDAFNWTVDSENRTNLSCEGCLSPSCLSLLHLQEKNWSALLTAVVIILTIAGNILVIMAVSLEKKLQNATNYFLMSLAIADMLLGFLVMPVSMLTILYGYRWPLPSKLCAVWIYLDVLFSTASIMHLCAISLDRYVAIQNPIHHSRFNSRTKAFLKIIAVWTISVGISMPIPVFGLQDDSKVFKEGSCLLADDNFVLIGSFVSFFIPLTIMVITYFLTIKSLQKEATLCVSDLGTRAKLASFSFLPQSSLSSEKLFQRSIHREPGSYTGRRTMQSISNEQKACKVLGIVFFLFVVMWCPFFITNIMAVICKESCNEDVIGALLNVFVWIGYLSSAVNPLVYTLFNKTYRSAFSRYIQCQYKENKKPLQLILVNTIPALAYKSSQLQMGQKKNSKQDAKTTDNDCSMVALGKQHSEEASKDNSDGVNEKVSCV

human NTR1 [7] = biological target: T1, human NTR1; experiment: PI turnover ([3H]IP1) in intact CHO-K1 cells, human NTR1; format: cell-based
Protocol: as §5

rat NTR1 [8] = biological target: T2, rat NTR1; experiment: Competition binding with [3H]NT, membranes of CHO-K1 cells transfected with rat NTR1
Protocol: as §1, §2, §3

For CN[C@@H](CCCNC(=N)N)C(=O)N[C@@H](CCCCN)C(=O)N1CCC[C@H]1C(=O)N[C@@H](Cc1cccc2[nH]ccc12)C(=O)N[C@H](C(=O)N[C@@H](CC(C)C)C(=O)O)C(C)(C)C [NT69L] (H-[NMeR]KP[Ala(indol-4-yl)][Tle]L-OH; N-terminus and C-terminus assumed), the Kd (human NTR1 [1]) was 1.55 ± 0.09 nM, the “increase in binding affinity at the human receptor versus Eisai” value (human NTR1 [1]) was 60 fold and the half-life at 0.5 mg/mL [2] was 20.8 days. The half-life [3] was 0.171 days, the T4 level ([4]; Sprague-Dawley rats, one hour post injection, saline 2.6) was 1.8 µg/dL and the corticosterone level ([4]; Sprague-Dawley rats, one hour post injection, saline 6.1) was 24.6 µg/dL. It also gave a TSH level ([4]; Sprague-Dawley rats, one hour post injection, saline 7.65) of 0.9 mIU/L, a glucose level ([4]; Sprague-Dawley rats, one hour post injection, saline 130) of 221 mg/dL and a T4 ([4]; Zucker rats, one hour after injection, control 1.47) of 1.03 µg/dL. It also gave a TSH ([4]; Zucker rats, one hour after injection, control 1.9) of 0.43 mIU/L, a corticosterone ([4]; Zucker rats, one hour after injection, control 10.9) of 19.7 µg/dL and a blood glucose ([4]; Zucker rats, one hour after injection, control 140) of 310 mg/dL. For the same compound, the “food intake versus saline controls” value ([5]; Zucker rats, one to two days post injection) was “significantly reduced”, the “increase in original body weight by day 15” value ([5]; genetically obese Zucker rats, 1 mg/kg ip, saline 31%) was 25% and the “reduction in original body weight by day 15” value ([5]; large Sprague-Dawley rats, 1 mg/kg ip, saline […] increase) was 3.0%. For the same compound, the “food intake versus saline controls” value ([5]; large Sprague-Dawley rats, one to two days post injection) was “significantly (P<0.003) less”, the “increase from original body weight at day 15” value ([5]; small Sprague-Dawley rats, 1 μg/kg ip) was 9.0% and the “increase from original body weight at day 15” value ([5]; small Sprague-Dawley rats, 10 μg/kg ip) was 8.4%. For the same compound, the “food intake versus saline controls” value ([5]; small Sprague-Dawley rats, throughout the experiment) was “significantly (P<0.003) less”, the EC50 (rat NTR1 [6]) was 1.34 ± 0.02 nM and the “improvement in potency at PI turnover versus Eisai, rat NTR1” value (rat NTR1 [6]) was “about two fold”. The Kd (5HT2A receptor) was 34600 nM, the EC50 (human NTR1 [7]) was 2.3 nM and the “improvement in potency at PI turnover versus Eisai, human NTR1” value (human NTR1 [7]) was “about 130 fold”. For the same compound, the Kd (rat NTR1 [8]) was 0.82 ± 0.07 nM and the “increase in binding affinity at the rat receptor versus Eisai” value (rat NTR1 [8]) was 6 fold.
